Assay results from patent US20180037923A1, “SELECTIVE DETECTION OF LACTIC ACID AND/OR ACETIC ACID BACTERIA OR OF FUNGI” (priority 2015, published 2018).

Legend:
[1] = test system: yeast populations versus lactic acid and acetic acid bacteria; test: Concentration threshold for being antifungal while non-bactericidal; assay type: cell-based; details: estimated
Method: It is estimated that for the molecule A1 the concentration threshold allowing to obtain the effect of the invention of being non-bactericidal for the lactic acid and acetic acid bacteria while being antifungal for the yeast populations is comprised within 50 mg/l or 50 mg/l and 100 mg/l.
In order to determine whether a particular molecule is suitable for the invention, a person skilled in the art may constitute a first list of antifungal products and a second list of non-bactericidal products for bacteria and select the products appearing in the first and second list for which the fungicidal activity intervenes prior to the bactericidal activity. However, an experimental verification of the fungicidal activity will be necessary to determine the minimum antifungal concentration per mg/L or in microgram per milliliter depending on the targeted fungal flora.

Sacch. Diastaticus IFBM = test: Agar plate count after contact with antifungal; assay type: cell-based, Saccharomyces diastaticus
Description: (§1) The word “bactericide” refers to a treatment having the effect of reducing a bacterial population by at least three decimal logarithms of colony forming units/ml on an agar plate count of a sample after treatment.
(§2) The toxicity results on yeasts and on bacteria are presented in the table below displaying the duration of exposure of the fungal flora to molecule A1 and the associated fluorescence measurement: yeasts lysis after exposure to the antifungal was confirmed by microscopic examination and methylene blue staining.
(§3) The words “contact time” refer to below, the time of exposure of the microorganisms to the fungicidal product, here molecule A1.
(§4) Below: “No CFU” is the abbreviation for “No Colony forming unit on agar plate count”.
(§5) The toxicity results on yeasts and on bacteria are presented in the table below displaying the duration of exposure of the fungal flora to the molecule A2 and are obtained by enumeration on MRS agar media.

[2] = test system: lactic acid bacteria and acetic acid bacteria; test: Bactericidal action on the bacterial flora (conclusion from agar plate counts); assay type: cell-based; details: for Bactericidal action on lactic acid and acetic acid flora: bactericide = reduction by at least three decimal logarithms of CFU/ml
Description: as §1, §2, §5

[3] = test system: Lactobacillus paracasei IFBM; test: Agar plate count after contact with antifungal; assay type: cell-based; details: count at contact time 0 h 1.4.10^7 CFU/mL
Description: as §1, §2, §3, §4, §5

[4] = test system: Lactobacillus brevis IFBM; test: Agar plate count after contact with antifungal; assay type: cell-based; details: count at contact time 0 h 7.10^5 CFU/mL
Description: as §1, §2, §3, §4, §5

Dekkera anomala IFBM = test: Agar plate count after contact with antifungal; assay type: cell-based
Description: as §1, §2, §3, §4, §5

[5] = test system: Oenococcus oeni DSM 20252; test: Agar plate count after contact with antifungal; assay type: cell-based
Description: as §1, §2, §3, §4, §5

Pedicoccus damnosus IFBM = test: Agar plate count after contact with antifungal; assay type: cell-based
Description: as §1, §2, §3, §4, §5

[6] = test system: Lactobacillus parabuchneri DSM 5708; test: Agar plate count after contact with antifungal; assay type: cell-based; details: count at contact time 0 h 1.4.10^6 CFU/mL
Description: as §1, §2, §3, §4, §5

[7] = test system: Lactobacillus lindneri DSM 20690; test: Agar plate count after contact with antifungal; assay type: cell-based
Description: as §1, §2, §3, §4, §5

[8] = test system: Acetobacter aceti DSM 3508; test: Agar plate count after contact with antifungal; assay type: cell-based; details: count at contact time 0 h 2.9.10^7 CFU/mL
Description: as §1, §2, §3, §4, §5

[9] = test system: Brettanomyces bruxellensis Wyeast labs; test: Agar plate count after contact with antifungal; assay type: cell-based
Description: as §1, §2, §3, §4, §5

[10] = test system: Sacch. Cerevisae DSM 70449; test: Agar plate count after contact with antifungal; assay type: cell-based, Saccharomyces cerevisae; details: for Agar plate count contact time 4 h: 400 mg/L
Description: as §1, §2, §3, §4, §5

G. oxydans DSM 7145 = test: Agar plate count after contact with antifungal; assay type: cell-based, Gluconobacter oxydans
Description: as §1, §2, §3, §4, §5

[11] = test system: Zyggosaccharomyces bailii; test: Agar plate count after contact with antifungal; assay type: cell-based; details: 400 mg/L
Description: as §1, §2, §3, §4, §5

[12] = test system: Sacch. Cerevisae Saflager S23; test: Agar plate count after contact with antifungal; assay type: cell-based, Saccharomyces cerevisae; details: 400 mg/L
Description: as §1, §2, §3, §4, §5

[13] = 400 mg/L, count at contact time 0 h 4.10^7 CFU/mL
[14] = 400 mg/L, count at contact time 0 h 1.1.10^5 CFU/mL
[15] = 400 mg/L, count at contact time 0 h 6.10^5 CFU/mL
[16] = 400 mg/L, count at contact time 0 h 8.10^7 CFU/mL
[17] = 200 mg/L, count at contact time 0 h 4.10^9 CFU/mL
[18] = 200 mg/L, count at contact time 0 h 7.2.10^5 CFU/mL
[19] = 200 mg/L, count at contact time 0 h 6.10^6 CFU/mL
[20] = 200 mg/L, count at contact time 0 h 8.10^8 CFU/mL
[21] = count at contact time 0 h 2.10^5 CFU/mL

C[C@@H]1C[C@@H]([C@H](O)CC2CC(=O)NC(=O)C2)C(=O)[C@@H](C)C1 [Molecule A4, cycloheximide]
Concentration threshold allowing to obtain the effect of the invention [1]: greater than 300 mg/l | Agar plate count contact time 18 h (Sacch. Diastaticus IFBM; Test No 2: 400 mg/L, count at contact time 0 h 4.10^4 CFU/mL): No CFU | Effect on bacteria cell integrity ([2]; doses of 400 mg/liter or more): preserves bacteria cell integrity | Agar plate count contact time 18 h ([3]; 400 mg/L): 3.10^7 CFU/mL | Agar plate count contact time 18 h ([4]; 400 mg/L): 2.10^6 CFU/mL | Agar plate count contact time 18 h (Dekkera anomala IFBM; Test No 2: 400 mg/L, count at contact time 0 h 1.10^5 CFU/mL): 1.2.10^1 CFU/mL | Agar plate count contact time 18 h [5, 13]: 1.10^8 CFU/mL | Agar plate count contact time 18 h (Pedicoccus damnosus IFBM; [14]): 4.10^4 CFU/mL | Agar plate count contact time 18 h ([6]; 400 mg/L): 6.10^6 CFU/mL | Agar plate count contact time 18 h [7, 15]: 1.10^5 CFU/mL | Agar plate count contact time 18 h ([8]; 400 mg/L): 9.10^7 CFU/mL | Agar plate count contact time 18 h ([9]; Test No 2: 400 mg/L, count at contact time 0 h 7.3.10^5 CFU/mL): No CFU | Agar plate count contact time 18 h ([10]; Test No 2: 400 mg/L, count at contact time 0 h 5.10^4 CFU/mL): No CFU | Agar plate count contact time 18 h (G. oxydans DSM 7145; [16]): 1.10^8 CFU/mL

C[C@@H](c1ncncc1F)[C@](O)(Cn1cncn1)c1ccc(F)cc1F [Molecule A3, voriconazole]
Agar plate count contact time 18 h (Sacch. Diastaticus IFBM; 400 mg/L, count at contact time 0 h 1.10^4 CFU/mL): No CFU | Bactericidal action on lactic acid and acetic acid flora ([2]; doses of 200 mg/liter): neither bactericidal for the lactic acid flora nor bactericidal for the acetic acid flora | Bactericidal action on lactic acid and acetic acid flora ([2]; doses of 400 mg/liter): neither bactericidal for the lactic acid flora nor bactericidal for the acetic acid flora | Agar plate count contact time 18 h ([3]; 200 mg/L): 5.10^7 CFU/mL | Agar plate count contact time 18 h ([3]; 400 mg/L): 2.10^7 CFU/mL | Agar plate count contact time 18 h ([4]; 200 mg/L): 1.10^6 CFU/mL | Agar plate count contact time 18 h ([4]; 400 mg/L): 1.10^6 CFU/mL | Agar plate count contact time 18 h (Dekkera anomala IFBM; 400 mg/L, count at contact time 0 h 7.10^5 CFU/mL): No CFU | Agar plate count contact time 18 h [5, 17]: 6.10^9 CFU/mL | Agar plate count contact time 18 h [5, 13]: 1.10^8 CFU/mL | Agar plate count contact time 18 h (Pedicoccus damnosus IFBM; [18]): 1.5.10^5 CFU/mL | Agar plate count contact time 18 h (Pedicoccus damnosus IFBM; [14]): 2.10^4 CFU/mL | Agar plate count contact time 18 h ([6]; 200 mg/L): 5.10^5 CFU/mL | Agar plate count contact time 18 h ([6]; 400 mg/L): 6.10^5 CFU/mL | Agar plate count contact time 18 h [7, 19]: 1.10^6 CFU/mL | Agar plate count contact time 18 h [7, 15]: 7.10^4 CFU/mL | Agar plate count contact time 18 h ([8]; 200 mg/L): 6.10^6 CFU/mL | Agar plate count contact time 18 h ([8]; 400 mg/L): 4.10^7 CFU/mL | Agar plate count contact time 18 h [9, 19]: 9.10^1 CFU/mL | Agar plate count contact time 18 h ([9]; 400 mg/L, count at contact time 0 h 8.10^4 CFU/mL): No CFU | Agar plate count contact time 18 h (G. oxydans DSM 7145; [20]): 1.10^9 CFU/mL | Agar plate count contact time 18 h (G. oxydans DSM 7145; [16]): 1.10^8 CFU/mL

CCC(C)(C)c1ccc(CC(C)CN2C[C@@H](C)O[C@@H](C)C2)cc1 (some centres unmarked) [Molecule A2, Amorolfine]
Agar plate count contact time 4 h (Sacch. Diastaticus IFBM; 400 mg/L, count at contact time 0 h 2.10^6 CFU/mL): No CFU | Bactericidal action on lactic acid and acetic acid flora ([2]; doses of 200 mg/liter): neither bactericidal for the lactic acid flora nor bactericidal for the acetic acid flora | Bactericidal action on lactic acid and acetic acid flora ([2]; doses of 400 mg/liter): neither bactericidal for the lactic acid flora nor bactericidal for the acetic acid flora | Agar plate count contact time 4 h ([3]; 200 mg/L): 5.10^7 CFU/mL | Agar plate count contact time 4 h ([3]; 400 mg/L): 4.10^7 CFU/mL | Agar plate count contact time 4 h ([11]; count at contact time 0 h 2.2.10^6 CFU/mL): No CFU | Agar plate count contact time 4 h ([4]; 200 mg/L): 1.10^6 CFU/mL | Agar plate count contact time 4 h ([4]; 400 mg/L): 8.10^5 CFU/mL | Agar plate count contact time 4 h (Dekkera anomala IFBM; 400 mg/L, count at contact time 0 h 5.10^3 CFU/mL): No CFU | Agar plate count contact time 4 h [5, 17]: 6.10^9 CFU/mL | Agar plate count contact time 4 h [5, 13]: 5.10^7 CFU/mL | Agar plate count contact time 4 h (Pedicoccus damnosus IFBM; [18]): 1.5.10^5 CFU/mL | Agar plate count contact time 4 h (Pedicoccus damnosus IFBM; [14]): 1.10^4 CFU/mL | Agar plate count contact time 4 h ([6]; 200 mg/L): 5.10^5 CFU/mL | Agar plate count contact time 4 h ([6]; 400 mg/L): 3.10^4 CFU/mL | Agar plate count contact time 4 h [7, 19]: 1.10^6 CFU/mL | Agar plate count contact time 4 h [7, 15]: 5.10^5 CFU/mL | Agar plate count contact time 4 h ([8]; 200 mg/L): 6.10^6 CFU/mL | Agar plate count contact time 4 h ([8]; 400 mg/L): 9.10^6 CFU/mL | Agar plate count contact time 4 h [9, 19]: No CFU | Agar plate count contact time 4 h ([9]; 400 mg/L, count at contact time 0 h 1.8.10^6 CFU/mL): No CFU | Agar plate count contact time 4 h ([12]; count at contact time 0 h 3.2.10^5 CFU/mL): No CFU | Agar plate count contact time 4 h ([10]; count at contact time 0 h 5.8.10^5 CFU/mL): No CFU | Agar plate count contact time 4 h (G. oxydans DSM 7145; [20]): 1.10^9 CFU/mL | Agar plate count contact time 4 h (G. oxydans DSM 7145; [16]): 9.10^7 CFU/mL

CC[C@H](C)C[C@H](C)CCCCCCCCC(=O)N[C@H]1C[C@@H](O)[C@@H](NCCN)NC(=O)[C@@H]2[C@@H](O)CCN2C(=O)[C@H]([C@H](O)CCN)NC(=O)[C@H]([C@H](O)[C@@H](O)c2ccc(O)cc2)NC(=O)[C@@H]2C[C@@H](O)CN2C(=O)[C@H]([C@@H](C)O)NC1=O [Molecule A5, caspofungin]
Agar plate count contact time 4 h (Sacch. Diastaticus IFBM; 400 mg/L, count at contact time 0 h 4.10^4 CFU/mL): No CFU | Bactericidal action on acetic acid bacteria and the lactic acid bacteria oenooccus oeni ([2]; doses of 200 mg/liter): non-bactericidal | Bactericidal action on acetic acid bacteria and the lactic acid bacteria oenooccus oeni ([2]; doses of 400 mg/liter): non-bactericidal | Agar plate count contact time 4 h ([3]; 200 mg/L): 1.1.10^4 CFU/mL | Agar plate count contact time 4 h ([3]; 400 mg/L): 1.10^2 CFU/mL | Agar plate count contact time 4 h [11, 21]: No CFU | Agar plate count contact time 4 h ([4]; 200 mg/L): 1.10^2 CFU/mL | Agar plate count contact time 4 h ([4]; 400 mg/L): 2.10^2 CFU/mL | Agar plate count contact time 4 h (Dekkera anomala IFBM; 400 mg/L, count at contact time 0 h 1.4.10^4 CFU/mL): No CFU | Agar plate count contact time 4 h [5, 17]: 6.10^9 CFU/mL | Agar plate count contact time 4 h [5, 13]: 5.10^7 CFU/mL | Agar plate count contact time 4 h (Pedicoccus damnosus IFBM; [18]): No CFU | Agar plate count contact time 4 h (Pedicoccus damnosus IFBM; [14]): No CFU | Agar plate count contact time 4 h ([6]; 200 mg/L): No CFU | Agar plate count contact time 4 h ([6]; 400 mg/L): No CFU | Agar plate count contact time 4 h [7, 19]: 9.10^1 CFU/mL | Agar plate count contact time 4 h [7, 15]: 1.10^2 CFU/mL | Agar plate count contact time 4 h ([8]; 200 mg/L): 1.10^5 CFU/mL | Agar plate count contact time 4 h ([8]; 400 mg/L): 2.10^6 CFU/mL | Agar plate count contact time 4 h [9, 19]: No CFU | Agar plate count contact time 4 h ([9]; 400 mg/L, count at contact time 0 h 1.7.10^4 CFU/mL): No CFU | Agar plate count contact time 4 h ([12]; count at contact time 0 h 3.10^5 CFU/mL): No CFU | Agar plate count contact time 4 h [10, 21]: No CFU | Agar plate count contact time 4 h (G. oxydans DSM 7145; [20]): 1.10^9 CFU/mL | Agar plate count contact time 4 h (G. oxydans DSM 7145; [16]): 9.10^7 CFU/mL
